According to US20170121295A1, “POLYCYCLIC LPA1 ANTAGONIST AND USES THEREOF” (AMIRA PHARMACEUTICALS, INC., priority 2010, published 2017):

Assays:
[1] = Solubility in a range of solvents (crystallisation experiments); type: physicochemical; details: organic solvents; water, cyclohexane, heptane unsuitable
Procedure: 20 mg of Compound 1 was weighed into a HPLC vial. 40 μL of ethanol was added and the vial was heated to reflux with a hot air gun. The solution was cooled to ambient temperature and the solids were filtered off. Crystalline Compound 1 (Pattern 1) was obtained as determined by XRPD. In the same manner as described from ethanol, the following solvents also provided crystalline Compound 1 (Pattern 1): methanol, 2-methoxyethanol, ethanol, 1-propanol, 2-propanol, 1-butanol, butyl acetate, acetone, methylethyl ketone, anisole, toluene. 5 Volumes (i.e. 100 μL) of the following solvents with heating also provided crystalline Compound 1 (Pattern 1): nitromethane, acetonitrile, ethyl acetate, cumene.
Compound 1 dissolved in 2 volumes (i.e. 40 μL) of the following solvents at ambient temperature: 1-4-dioxane, tetrahydrofuran. The vials were uncapped and allowed to slowly evaporate. This provided crystalline Compound 1 (Pattern 1).

Human LPA1 = molecular target: T1, Human LPA1 (Homo sapiens, UniProt Q92633); assay: LPA1 Calcium Flux Assay; type: cell-based; details: human LPA1 expressing CHO cells, 10 nM LPA; read-out: Ca Flux IC50 LPA1
T1 construct: the full-length cDNA for human LPA1 was obtained by PCR of the reverse transcription reaction; expressed in transfected cells
T1 sequence (Q92633 whole entry): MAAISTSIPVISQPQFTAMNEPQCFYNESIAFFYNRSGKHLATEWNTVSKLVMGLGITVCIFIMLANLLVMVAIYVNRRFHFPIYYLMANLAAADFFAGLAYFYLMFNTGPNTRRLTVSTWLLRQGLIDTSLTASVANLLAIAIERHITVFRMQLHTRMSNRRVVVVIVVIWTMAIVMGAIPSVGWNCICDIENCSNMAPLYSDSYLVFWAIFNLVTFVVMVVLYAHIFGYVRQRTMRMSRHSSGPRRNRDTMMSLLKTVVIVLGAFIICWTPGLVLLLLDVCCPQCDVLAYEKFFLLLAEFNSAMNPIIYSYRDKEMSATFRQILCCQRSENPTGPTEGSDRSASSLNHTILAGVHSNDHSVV
Procedure: A 1.1 kb cDNA encoding the human LPA1 receptor was cloned from human lung. Human lung RNA (Clontech Laboratories, Inc. USA) was reverse transcribed using the RETROscript kit (Ambion, Inc.) and the full-length cDNA for human LPA1 was obtained by PCR of the reverse transcription reaction. The nucleotide sequence of the cloned human LPA1 was determined by sequencing and confirmed to be identical to the published human LPA1 sequence (An et al. Biochem. Biophys. Res. Commun. 231:619 (1997). The cDNA was cloned into the pCDNA5/FRT expression plasmid and transfected in CHO cells using lipofectamine 2000 (Invitrogen Corp., USA). Clones stably expressing human LPA1 were selected using hygromycin and identified as cells that show Ca-influx in response to LPA.
(§1) Human LPA1 or LPA3 expressing CHO cells are seeded at 20,000-45,000 cells per well in a 96-well poly-D-lysine coated plate one or two days before the assay. Prior to the assay, the cells are washed once with PBS and then cultured in serum-free media overnight. On the day of the assay, a calcium indicator dye (Calcium 4, Molecular Devices) in assay buffer (HBSS with Ca^2+ and Mg^2+ and containing 20 mM Hepes and 0.3% fatty-acid free human serum albumin) is added to each well and incubation continued for 1 hour at 37° C. 10 μl of test compound in 2.5% DMSO are added to the cells and incubation continued at room temperature for 30 minutes. Cells are the stimulated by the addition of 10 nM LPA and intracellular Ca^2+ measured using the Flexstation 3 (Molecular Devices). IC50s are determined using Graphpad prism analysis of drug titration curves.

Human LPA3 = molecular target: T2, Human LPA3 (Homo sapiens, UniProt Q9UBY5); assay: LPA3 Calcium Flux Assay; type: cell-based; details: human LPA3 expressing CHO cells, 10 nM LPA; read-out: Ca Flux IC50 LPA3
T2 construct: The full-length cDNA fragment for human LPA3 was obtained by PCR from the vector
T2 sequence (Q9UBY5 1-353): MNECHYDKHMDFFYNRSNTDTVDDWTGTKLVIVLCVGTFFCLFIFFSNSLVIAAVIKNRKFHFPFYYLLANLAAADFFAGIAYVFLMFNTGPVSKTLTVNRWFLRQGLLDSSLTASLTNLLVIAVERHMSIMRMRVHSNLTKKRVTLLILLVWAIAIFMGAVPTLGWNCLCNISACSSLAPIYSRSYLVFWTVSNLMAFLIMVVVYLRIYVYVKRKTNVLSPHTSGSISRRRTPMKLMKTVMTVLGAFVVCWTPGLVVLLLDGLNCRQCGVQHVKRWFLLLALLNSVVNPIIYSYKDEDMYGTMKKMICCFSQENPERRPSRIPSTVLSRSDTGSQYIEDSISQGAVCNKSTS
Procedure: A vector containing the human LPA3 receptor cDNA was obtained from the Missouri S&T cDNA Resource Center (www.cdna.org). The full-length cDNA fragment for human LPA3 was obtained by PCR from the vector. The nucleotide sequence of the cloned human LPA3 was determined by sequencing and confirmed to be identical to the published human LPA3 sequence (NCBI accession number NM_012152). The cDNA was cloned into the pCDNA5/FRT expression plasmid and transfected in CHO cells using lipofectamine 2000 (Invitrogen Corp., USA). Clones stably expressing human LPA3 were selected using hygromycin and identified as cells that show Ca-influx in response to LPA.
as §1

[2] = Pharmacokinetics in Male Beagle Dogs; type: in vivo; details: free acid dosed orally at 5 mg/kg
Procedure: The pharmacokinetics of Compound 1 and Compound 2 was assessed in male Beagle dogs.
Dosing of male Beagle dogs (n=3) was performed. Compound 1 or Compound 2 was dosed intravenously at 2 mg/kg (fasted) and orally (fasted or non-fasted) at 5 mg/kg. In fasted animals, food was withheld a minimum of 12 hours prior to dosing and then returned 4 hours post-dose. Non-fasted animals were allowed to feed 1 hour prior to dosing ad libitum. Compound 2 capsules were given by oral gavage in the fasted state. Plasma samples were collected by Perry Scientific study personnel.
The capsules are noted in Table 25 below. Capsules were size 0 gelatin (Capsugel, Peapack, N.J.). Tablet formulations are noted in Example 24.
For the clinical drug product oral solution of active agent (1.67 mg/mL), sucralose (0.5% w/w) and cherry flavor (0.5% w/w) is added to the formulation as a sweetener and taste masking agent, respectively to a 0.5% methocel aqueous solution.
Blood samples (approximately 1 mL total blood) were taken from each dog at pre-dose, and an initial time of 5 or 15 min and then various time points up to 24 hours post-dose (10-11 samples per animal). Samples were collected on wet ice in tubes containing potassium EDTA. After each blood draw, the cannula was flushed with an equivalent volume of heparinized saline (0.1 mL at 40 units/mL). Plasma samples, prepared by centrifugation of whole blood, were stored frozen (−80° C.) prior to analysis.

LPA4 = LPA4 (Homo sapiens, UniProt Q99677); assay: LPA4 Calcium Flux Assay; type: cell-based; details: read-out: Ca Flux IC50 LPA4
Sequence of LPA4 (Q99677 whole entry, species assumed): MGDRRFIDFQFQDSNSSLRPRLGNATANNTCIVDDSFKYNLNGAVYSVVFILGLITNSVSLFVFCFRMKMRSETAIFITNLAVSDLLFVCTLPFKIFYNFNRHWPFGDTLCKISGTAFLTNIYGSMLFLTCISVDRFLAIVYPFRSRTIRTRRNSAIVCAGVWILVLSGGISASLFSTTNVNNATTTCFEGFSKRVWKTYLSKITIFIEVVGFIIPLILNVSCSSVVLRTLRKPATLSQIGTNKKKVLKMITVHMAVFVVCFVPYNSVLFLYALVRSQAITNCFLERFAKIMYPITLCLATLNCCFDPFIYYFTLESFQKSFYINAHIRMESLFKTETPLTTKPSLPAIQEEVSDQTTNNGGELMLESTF

**Q.** With Cc1noc(-c2ccc(-c3ccc(C4(C(=O)O)CC4)cc3)cc2)c1NC(=O)O[C@H](C)c1ccccc1 [Compound 1, 1-{4′-[3-methyl-4-((R)-1-phenyl-ethoxycarbonylamino)-isoxazol-5-yl]-biphenyl-4-yl}-cyclopropanecarboxylic acid] as the compound, how does the “solubility in a range of solvents” value [1] read?
**A.** good solubility in a range of solvents

**Q.** And the IC50 (Human LPA1)?
**A.** < 0.2 µM

**Q.** What about the IC50 (Human LPA3) of the same compound?
**A.** > 1 µM

**Q.** What about the exposure [2] of the same compound?
**A.** reduced exposure

**Q.** What about the bioavailability ([2]; male, Beagle, dog, plasma, po, 5 mg/kg, read-out: apparent oral bioavailability) of the same compound?
**A.** 19%

**Q.** What about the IC50 (LPA4) of the same compound?
**A.** > 1 µM
